Values after ≈ are worked out from the molar mass of the structure shown.
Columns and labels:
[1] = Protective index, ratio of MNTD50 for HEK293T cells to MIC for Mycobacterium tuberculosis H37Rv
[2] = system: Mycobacterium tuberculosis; test: Antitubercular activity against Mycobacterium tuberculosis H37Rv measured after 1 week by microplate alamar blue assay; assay type: functional; conditions: 168 h
HEK-293T = test: Cytotoxicity against HEK293T cells after 48 hrs by MTT assay; assay type: cell-based; conditions: human

| SMILES | Ratio [1] | MIC [2] | MNTD50 (HEK-293T) |
| --- | --- | --- | --- |
| FC(F)(F)c1ccc(Cn2cc(C3=C(Cl)c4ccc(-c5cccs5)nc4CC3)nn2)cc1 | 13.76 | 6.25 µg/mL (≈ 13.2 µM) | 86 µg/mL |
| O=[N+]([O-])c1ccc(Cn2cc(C3=C(Cl)c4ccc(-c5cccs5)nc4CC3)nn2)cc1 | 5.52 | 12.5 µg/mL (≈ 27.8 µM) | 69 µg/mL |
| COc1cc(Cn2cc(C3=C(Cl)c4ccc(-c5cccs5)nc4CC3)nn2)cc(OC)c1OC | 5.92 | 12.5 µg/mL (≈ 25.3 µM) | 74 µg/mL |
| ClC1=C(c2cn(Cc3ccc(Br)cc3)nn2)CCc2nc(-c3cccs3)ccc21 | 28.02 | 3.12 µg/mL (≈ 6.45 µM) | 88 µg/mL |
| CCc1ccc(Cn2cc(C3=C(Cl)c4ccc(-c5cccs5)nc4CC3)nn2)cc1 |  | 25 µg/mL (≈ 57.7 µM) |  |
| COc1cccc(Cn2cc(C3=C(Cl)c4ccc(-c5cccs5)nc4CC3)nn2)c1 | 31.4 | 3.12 µg/mL (≈ 7.17 µM) | 98 µg/mL |
| ClC1=C(c2cn(Cc3ccc(Cl)c(Cl)c3)nn2)CCc2nc(-c3cccs3)ccc21 |  | 25 µg/mL (≈ 52.8 µM) |  |
| N#CC1=C(Cl)c2ccc(-c3cccs3)nc2CC1 |  | 25 µg/mL (≈ 91.7 µM) |  |
| Cc1ccc(Cn2cc(C3=C(Cl)c4ccc(-c5cccs5)nc4CC3)nn2)cc1 |  | 25 µg/mL (≈ 59.7 µM) |  |
| COc1ccc(Cn2cc(C3=C(Cl)c4ccc(-c5cccs5)nc4CC3)nn2)cc1 |  | 25 µg/mL (≈ 57.5 µM) |  |
| Fc1ccc(Cn2cc(C3=C(Cl)c4ccc(-c5cccs5)nc4CC3)nn2)cc1 |  | 25 µg/mL (≈ 59.1 µM) |  |
| Cc1cc(C)c(Cn2cc(C3=C(Cl)c4ccc(-c5cccs5)nc4CC3)nn2)c(C)c1 |  | 25 µg/mL (≈ 55.9 µM) |  |
| ClC1=C(c2cn(Cc3cccc(Br)c3)nn2)CCc2nc(-c3cccs3)ccc21 |  | 25 µg/mL (≈ 51.7 µM) |  |
| ClC1=C(c2cn(Cc3ccccc3)nn2)CCc2nc(-c3cccs3)ccc21 | 71.7 | 1.56 µg/mL (≈ 3.85 µM) | 112 µg/mL |
| Fc1ccc(Cn2cc(C3=C(Cl)c4ccc(-c5cccs5)nc4CC3)nn2)c(Cl)c1 |  | 25 µg/mL (≈ 54.7 µM) |  |
| Fc1cc(Br)ccc1Cn1cc(C2=C(Cl)c3ccc(-c4cccs4)nc3CC2)nn1 |  | 25 µg/mL (≈ 49.8 µM) |  |
| O=C(O)c1cn(C2CC2)c2cc(N3CCNCC3)c(F)cc2c1=O [CIPROFLOXACIN] |  | 1.56 µg/mL (≈ 4.71 µM) |  |
| CC[C@@H](CO)NCCN[C@@H](CC)CO [ETHAMBUTOL] |  | 3.13 µg/mL (≈ 15.3 µM) |  |
| NNC(=O)c1ccncc1 [ISONIAZID] |  | 0.1 µg/mL (≈ 0.729 µM) | 32 µg/mL |
| CO[C@H]1/C=C/O[C@@]2(C)Oc3c(C)c(O)c4c(O)c(c(/C=N/N5CCN(C)CC5)c(O)c4c3C2=O)NC(=O)/C(C)=C\C=C\[C@H](C)[C@H](O)[C@@H](C)[C@@H](O)[C@@H](C)[C@H](OC(C)=O)[C@@H]1C [RIFAMPIN] |  | 0.2 µg/mL (≈ 0.243 µM) |  |
